Results reported in US12691086B2, “Methods of treating systemic sclerosis and idiopathic pulmonary fibrosis” (HORIZON THERAPEUTICS IRELAND DAC, priority 2022, dated 2026).
“Also recorded” adds a separate entry of the source. Where two headings read alike, the source gives them in different places.

Key:
[1] = Food effect on PK at 450 mg single dose in healthy adult subjects; assay type: in vivo, human; settings: for AUC(0-inf) / AUC(0-t) / Cmax: human, plasma, oral; for AUC(0-inf): read-out: AUC0-inf, Geometric LSM; for AUC(0-t): read-out: AUC0-last, Geometric LSM; for Cmax: read-out: Cmax, Geometric LSM
Description: (§1) The PK of Compound I and food effect were evaluated in an open-label study in healthy volunteers to inform the dose and dosing condition of the tablet formulations used in the clinical studies. Dose proportionality and food effect were evaluated using a 2-way, 2-period crossover design in two cohorts:150 mg and 300 mg single dose under fasting condition in Cohort 1 and 450 mg single dose under fasting and high-fat, high calorie meal condition in Cohort 2. Multiple-dose PK was evaluated using a 2-period, fixed sequence crossover design. Subjects received Compound I twice a day (BID) of 300 mg (Cohort 3) or 450 mg (Cohort 4) administered with low-fat meals in Period 1 and with high-fat meals in Period 2.
(§2) PK sample collections: For cohort 1 and 2, blood samples were collected at predose, 0.5, 1, 2, 3, 4, 6, 8, 12, 24, 36, 48, 72, 96 and 120 h post dose. For cohort 3 and 4, blood samples were collected at predose, 0.5, 1, 2, 4, 5, 12 hrs after the first dose on Day 1. After the last dose on Day 5, PK samples were taken at predose, 0.5, 1, 2, 4, 6, 12, 24, 36, 60, 84, 108 hr in Period 1 and predose, 0.5, 1, 2, 4, 6, 12 hours post last dose in Period 2.
(§3) Plasma concentrations of Compound I were determined using a validated high performance liquid chromatography-tandem mass spectrometry (HPLC MS/MS) method. The analytical range of Compound I were 250-50,000 ng/mL (high range) and […] (low range). Dose-proportionality of pharmacokinetic parameters were examined by analysis of variance (ANOVA) where the AUC0-last, AUC0-inf, and Cmax parameters were dose normalized. 90% confidence intervals (CIs) were derived by exponentiation of the CIs obtained for the difference between the treatment LSMs (Least square means). Dose proportionality was established if the 90% CI for the ratio of the geometric means for the dose-normalized parameters lay within the limits of (0.7, 1.43).
Food effect was evaluated using ANOVA on the ln-transformed PK parameters. The ANOVA model included sequence, treatment, and period as fixed effects and subject nested within sequence as a random effect. Geometric least square means, geometric mean ratio (High fat vs. fasted) and 90% confidence interval of PK parameters (AUC and Cmax) were calculated from the ANOVA model.

[2] = system: patients with early dcSSc; experiment: 8-week double-blind, placebo-controlled study with 16-week open-label extension in dcSSc; assay type: in vivo, human
Excerpt: The primary end point was safety during the double-blind phase of the trial. Exploratory end points included the identification of an LPA-induced gene signature in patients' skin.
Seventeen of 32 patients were randomly assigned to receive placebo and 15 to receive Compound I. Thirty patients participated in the open-label extension study. […] At week 8, the reduction in MRSS was numerically greater in the Compound I group than in the placebo group (mean±SD change −3.57±4.18 versus −2.76±4.85; treatment effect −1.2 [95% confidence interval −4.37, 2.02]).

[3] = system: leukocytes and total inflammatory cells in broncho-alveolar lavage; experiment: Broncho-alveolar lavage of presensitized mice treated with ovalbumin; assay type: in vivo
[4] = Single-dose PK under fasted conditions in healthy adult subjects; assay type: in vivo, human; settings: for AUC(0-inf) / AUC(0-t) / Cmax / Tmax / half-life: human, plasma, oral
Description: as §1, §2, §3

[5] = Multiple-dose (BID) PK at steady state with meals in healthy adult subjects; assay type: in vivo, human; settings: for t1/2 / half-life: median; for Ctrough / AUC / Cmax: steady state, mean (% CV); for AUC / Cmax / half-life: human, plasma, oral
Description: as §1, §2, §3

[6] = target: T1, organic anion transporter 1 (OAT1) (Homo sapiens, UniProt Q4U2R8); experiment: In vitro inhibition of organic anion transporter 1; assay type: in vitro ADME
T1 sequence (Q4U2R8 1-563): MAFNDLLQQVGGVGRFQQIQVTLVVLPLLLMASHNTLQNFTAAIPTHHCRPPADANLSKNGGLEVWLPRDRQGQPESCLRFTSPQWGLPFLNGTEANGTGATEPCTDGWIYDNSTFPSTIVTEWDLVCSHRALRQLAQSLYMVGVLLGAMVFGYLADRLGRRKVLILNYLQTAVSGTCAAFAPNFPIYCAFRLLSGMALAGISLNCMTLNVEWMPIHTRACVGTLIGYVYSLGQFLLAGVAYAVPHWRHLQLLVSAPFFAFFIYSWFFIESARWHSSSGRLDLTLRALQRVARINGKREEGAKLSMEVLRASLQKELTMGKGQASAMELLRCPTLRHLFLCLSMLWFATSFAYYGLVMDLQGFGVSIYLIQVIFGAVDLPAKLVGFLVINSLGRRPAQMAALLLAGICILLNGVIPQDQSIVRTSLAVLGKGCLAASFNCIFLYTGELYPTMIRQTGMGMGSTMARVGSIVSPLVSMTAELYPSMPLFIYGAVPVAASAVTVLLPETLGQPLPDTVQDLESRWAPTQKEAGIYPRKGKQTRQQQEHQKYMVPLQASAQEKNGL

thrombosis = experiment: Model of thrombosis in mouse; assay type: in vivo; settings: one model in mouse
[7] = system: patients with early dcSSc; settings: Allanore et al. 2018, cited from earlier work
[8] = Fed (high-fat, high-calorie meal)
[9] = 24-weeks of continuous treatment
[10] = Subjects switched from placebo to Compound I, 16-week open label extension
[11] = 300 mg BID, High-fat reduced calorie meal
[12] = 450 mg BID, High-fat high calorie meal
[13] = 300 mg, 300 mg BID, High-fat reduced calorie meal
[14] = 300 mg, 300 mg BID, Low-fat meal
[15] = 450 mg, 450 mg BID, High-fat high calorie meal
[16] = 450 mg, 450 mg BID, Low-fat meal

Cmax, GMR fed vs fasted [1]: 190.85%
AUC(0-inf) ([1]; Fasted): 117 µg·h/mL
AUC(0-t) ([1]; Fasted): 116 µg·h/mL
Cmax ([1]; Fasted): 14 µg/mL
AUC(0-inf) [1, 8]: 248 µg·h/mL
AUC(0-t) [1, 8]: 246 µg·h/mL
Cmax [1, 8]: 26.7 µg/mL
dose proportionality of Cmax and AUC ([4]; 150 to 450 mg, ANOVA): less than dose-proportional
AUC(0-inf) ([4]; 150 mg single dose): 85.2 µg·h/mL
AUC(0-t) ([4]; 150 mg single dose): 83.8 µg·h/mL
Cmax ([4]; 150 mg single dose): 11.1 µg/mL
Tmax ([4]; 150 mg single dose): 3.5 h
half-life ([4]; 150 mg single dose): 21.8 h
AUC(0-inf) ([4]; 300 mg single dose): 120 µg·h/mL
AUC(0-t) ([4]; 300 mg single dose): 118 µg·h/mL
Cmax ([4]; 300 mg single dose): 14.5 µg/mL
Tmax ([4]; 300 mg single dose): 4 h
half-life ([4]; 300 mg single dose): 22.4 h
AUC(0-inf) ([4]; 450 mg single dose): 126 µg·h/mL
AUC(0-t) ([4]; 450 mg single dose): 125 µg·h/mL
Cmax ([4]; 450 mg single dose): 15.2 µg/mL
Tmax ([4]; 450 mg single dose): 3 h
half-life ([4]; 450 mg single dose): 18.3 h
t1/2 [5, 11]: 24.6 h
Ctrough [5, 11]: 8627 (17%) ng/mL
Ctrough ([5]; 300 mg BID, Low-fat meal): 6570 (13%) ng/mL
t1/2 [5, 12]: 27.7 h
Ctrough [5, 12]: 11000 (23%) ng/mL
Ctrough ([5]; 450 mg BID, Low-fat meal): 11000 (35%) ng/mL
AUC [5, 13]: 166 µg·h/mL
Cmax [5, 13]: 21.7 µg/mL
AUC [5, 14]: 129 µg·h/mL
Cmax [5, 14]: 15.9 µg/mL
AUC [5, 15]: 204 µg·h/mL
Cmax [5, 15]: 25.8 µg/mL
AUC [5, 16]: 163 µg·h/mL
Cmax [5, 16]: 18.4 µg/mL
half-life ([5]; 300 mg BID, Low-fat meal): 24.6 h
half-life ([5]; 450 mg BID, Low-fat meal): 27.7 h
inhibition of OAT1 [6]: inhibitor
Compound: COc1ccc(C(=O)NC2(C(=O)O)Cc3ccccc3C2)cc1OCCc1cccc(C)c1 [Compound I, 2-(4-methoxy-3-(3-methylphenethoxy)benzamido)-2,3-dihydro-1H-indene-2-carboxylic acid]
Median Decrease in mRSS [2, 9]: −7.5
Responder Rate [2, 9]: 78.6%
Median Decrease in mRSS [2, 10]: −7.0
Responder Rate [2, 10]: 69.2%
most frequent adverse events ([2]; blinded phase): headache, diarrhea, nausea, and falling
MRSS during the study ([2]; in vivo): improved during the study although the difference was not significant
disease biomarkers (COMP and TSP1) ([2]; initial Compound I group, treatment up to 24 weeks): numerical improvement versus baseline
LPA-related genes, biomarker analysis of skin biopsies ([2]; open label extension): reductions in LPA-related genes
safety profile ([2]; open-label extension): acceptable
tolerability ([2]; patients with dcSSc): well tolerated
reduction of LPA-related genes in skin samples versus placebo group ([2]; week 8): greater reduction
treatment effect on MRSS versus placebo ([2]; week 8): −1.2
change in MRSS, mean±SD ([2]; week 8, double-blind phase): −3.57±4.18
HAQ-DI (functional disability) ([2]; week 24): clinically significant improvement
inflammation in model of lung injury ([3]; predominant Th2-type response): reduces inflammation
accumulation of leukocytes and total inflammatory cells in broncho-alveolar lavage ([3]; presensitized mice treated with ovalbumin): significant inhibitory effect
antithrombotic activity (thrombosis): demonstrated antithrombotic activity
most frequent treatment-emergent adverse events (TEAEs) ([7]; 8-week double-blind period): headache, diarrhea, nausea and fall
tolerability ([7]; about 300 mg BID up to 24 weeks): well tolerated
clinical outcome measures (mRSS, HAQ-DI, SHAQ components, disease severity VAS, pruritus VAS) ([7]; about 300 mg BID): improved outcome measures; also recorded: numerical improvement
target engagement [7]: demonstrated target engagement
